# According to patent US6784201B2, “Benzothiepines having activity as inhibitors of ileal bile acid transport and taurocholate uptake” (G.D. Searle & Company, priority 1994, dated 2004):
# Read-outs that look alike come from different tables or passages of the source.
# Columns and labels:
# H14 cells = test: In vitro assay of uptake of [14C]-alanine; assay type: cell-based, hamster
# Experimental: Baby hamster kidney cells (BHK) transfected with the cDNA of human IBAT (H14 cells) are seeded at 60,000 cells/well in 96 well Top-Count tissue culture plates for assays run within in 24 hours of seeding, 30,000 cells/well for assays run within 48 hours, and 10,000 cells/well for assays run within 72 hours.
# On the day of assay, the cell monolayer is gently washed once with 100 μl assay buffer (Dulbecco's Modified Eagle's medium with 4.5 g/L glucose+0.2% (w/v) fatty acid free bovine serum albumin-(FAF)BSA). To each well 50 μl of a two-fold concentrate of test compound in assay buffer is added along with 50 μl of 6 μM [^14C]-taurocholate in assay buffer (final concentration of 3 μM [^14C]-taurocholate). The cell culture plates are incubated 2 hours at 37° C. prior to gently washing each well twice with 100 μl 4° C. Dulbecco's phosphate-buffered saline (PBS) containing 0.2% (w/v) (FAF)BSA. The wells are then gently washed once with 100 μl 4° C. PBS without (FAF)BSA. To each 200 μl of liquid scintillation counting fluid is added, the plates are heat sealed and shaken for 30 minutes at room temperature prior to measuring the amount of radioactivity in each well on a Packard Top-Count instrument.
# In Vitro Assay of Compounds that Inhibit Uptake of [^14C3-Alanine
# The alanine uptake assay is performed in an identical fashion to the taurocholate assay, with the exception that labeled alanine is substituted for the labeled taurocholate.
# human IBAT = biological target: T1, human IBAT (Homo sapiens, UniProt Q12908); test: In vitro assay of IBAT-mediated uptake of [14C]-taurocholate (TC) in H14 cells; assay type: cell-based
# T1 construct: expressed in transfected cells; host or cells: Baby hamster kidney (BHK) cells, clone H14
# T1 sequence (Q12908 1-348): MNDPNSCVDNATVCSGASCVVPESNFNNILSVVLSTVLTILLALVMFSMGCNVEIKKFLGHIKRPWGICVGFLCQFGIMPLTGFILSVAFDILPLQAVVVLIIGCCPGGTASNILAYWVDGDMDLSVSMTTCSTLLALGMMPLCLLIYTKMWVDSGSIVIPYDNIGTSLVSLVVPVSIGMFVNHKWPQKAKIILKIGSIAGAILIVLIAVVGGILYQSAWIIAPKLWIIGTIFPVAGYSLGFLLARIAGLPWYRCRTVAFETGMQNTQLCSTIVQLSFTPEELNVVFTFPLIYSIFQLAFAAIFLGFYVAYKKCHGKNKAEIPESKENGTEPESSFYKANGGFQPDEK
# Method in brief: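 BHK cells stably expressing human IBAT (H14) were incubated 2 h at 37° C with compound and 3 μM final [14C]-taurocholate in DMEM (4.5 g/L glucose) plus 0.2% fatty acid-free BSA. After cold PBS washes, cell-associated radioactivity was measured by scintillation counting.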
# fecal bile acid (FBA) = test: Rat gavage assay (fecal bile acid increase); assay type: in vivo
# Experimental: Male Wister rats (275-300 g) are administered IBAT inhibitors using an oral gavage procedure. Drug or vehicle (0.2% Tween 80 in water) is administered once a day (9:00-10:0 a.m.) for 4 days at varying dosages in a final volume of 2 mL per kilogram of body weight. Total fecal samples are collected during the final 48 hours of the treatment period and analyzed for bile acid content using an enzymatic assay as described below. Compound efficacy is determined by comparison of the increase in fecal bile acid (FBA) concentration in treated rats to the mean FBA concentration of rats in the vehicle group.
# Measurement of Fecal Bile Acid Concentration (FBA)
# Total fecal output from individually housed hamsters was collected for 24 or 48 hours, dried under a stream of nitrogen, pulverized and weighed. Approximately 0.1 gram was weighed out and extracted into an organic solvent (butanol/water). Following separation and drying, the residue was dissolved in methanol and the amount of bile acid present was measured enzymatically using the 3α-hydroxysteroid steroid dehydrogenase reaction with bile acids to reduce NAD. (Reference: Mashige, F., et al. (1981) Clin. Chem. 27, 1352).
# [1] = In Vitro Taurocholate Uptake, Table 10, read-out: Human TC IC50
"IC50 (human IBAT; H14 cells, Table 5, read-out: IC50 uM (In vitro Taurocholate Cell Uptake)) [µM]",IC50 (human IBAT; [1]) [µM],SMILES,% Inhibition of Alanine Uptake @ 100 uM (H14 cells; 100 uM) [%],Delta (micromoles fecal bile acid per day) (fecal bile acid (FBA); dose 2 mg/kg/day),Delta (micromoles fecal bile acid per day) (fecal bile acid (FBA); dose 5 mg/kg/day),Delta (micromoles fecal bile acid per day) (fecal bile acid (FBA); dose .016 mg/kg/day),Delta (micromoles fecal bile acid per day) (fecal bile acid (FBA); dose .04 mg/kg/day),Delta (micromoles fecal bile acid per day) (fecal bile acid (FBA); dose .08 mg/kg/day),Delta (micromoles fecal bile acid per day) (fecal bile acid (FBA); dose .2 mg/kg/day),Delta (micromoles fecal bile acid per day) (fecal bile acid (FBA); dose .4 mg/kg/day),"inhibition at 20 µM (H14 cells; Mesocricetus auratus, 20 μM) [%]"
7,–,"CCCCC1(CC)CS(=O)(=O)c2ccccc2C(=C2CCCCC2)C1O (stereo not shown) [Example 10a, 3-Butyl-3-ethyl-4-hydroxy-5-cyclohexylidine--2,3,4,5-tetrahydrobenzothiepine-1,1-dioxide]",77.6,–,–,–,–,–,–,–,–
–,0.015,"CCCCC1(CCCC)CS(=O)(=O)c2ccc(N(C)C)cc2[C@@H](c2ccc(OCCCCCN(CC)CC)cc2)[C@H]1O [Example 1414, (4R-cis)-3,3-Dibutyl-5-[4-[[5-(diethylamino)pentyl]oxy]phenyl]-7-(dimethylamino)-2,3,4,5-tetrahydro-1-benzothiepin-4-ol 1,1-dioxide]",–,41.5 micromoles fecal bile acid per day,45.2 micromoles fecal bile acid per day,3.8 micromoles fecal bile acid per day,14.3 micromoles fecal bile acid per day,29 micromoles fecal bile acid per day,39.5 micromoles fecal bile acid per day,33.7 micromoles fecal bile acid per day,–
–,0.014,"CCCCC1(CCCC)CS(=O)(=O)c2ccc(N(C)C)cc2[C@@H](c2ccc(OCCCCCN(CCN(CC)CC)CCN(CC)CC)cc2)[C@H]1O [Example 1416, (4R-cis)-5-[4-[[5-[bis[2-(Diethylamino)ethyl]amino]pentyl]oxy]phenyl]-3,3-dibutyl-7-(dimethylamino)-2,3,4,5-tetrahydro-1-benzothiepin-4-ol 1,1-dioxide]",–,46.1 micromoles fecal bile acid per day,–,−7.8 micromoles fecal bile acid per day,–,25 micromoles fecal bile acid per day,–,21.9 micromoles fecal bile acid per day,–
–,0.003,"CCCCC1(CCCC)CS(=O)(=O)c2ccc(N(C)C)cc2[C@@H](c2ccc(OCCCCCNCC(=O)O)cc2)[C@H]1O [Example 1423, (4R-cis)-N-[5-[4-[3,3-Dibutyl-7-(dimethylamino)-2,3,4,5-tetrahydro-4-hydroxy-1,1-dioxido-1-benzothiepin-5-yl]phenoxy]pentyl]glycine]",–,56.5 micromoles fecal bile acid per day,–,14.4 micromoles fecal bile acid per day,–,35.3 micromoles fecal bile acid per day,–,69.3 micromoles fecal bile acid per day,–
–,0.023,CCCCC1(CCCC)CS(=O)(=O)c2ccc(N(C)C)cc2[C@@H](c2ccc(OCC(=O)NCC(=O)O)cc2)[C@H]1O [Example 1403],–,41.6 micromoles fecal bile acid per day,–,3 micromoles fecal bile acid per day,–,11.9 micromoles fecal bile acid per day,–,35.2 micromoles fecal bile acid per day,–
–,0.002,"CCCCC1(CCCC)CS(=O)(=O)c2ccc(N(C)C)cc2[C@@H](c2ccc(OCCCC[n+]3cccc(O)c3)cc2)[C@H]1O.CS(=O)(=O)[O-] [Example 1411, (4R-cis)-1-[4-[4-[3,3-Dibutyl-7-(dimethylamino)-2,3,4,5-tetrahydro-4-hydroxy-1,1-dioxido-1-benzothiepin-5-yl]phenoxy]butyl]-3-hydroxypyridinium, methanesulfonate (Salt)]",–,63.4 micromoles fecal bile acid per day,–,22.3 micromoles fecal bile acid per day,–,33 micromoles fecal bile acid per day,–,54.1 micromoles fecal bile acid per day,–
–,–,"CCCC[C@]1(CC)CS(=O)(=O)c2cc(O)ccc2[C@H](c2ccccc2)[C@@H]1O [Example 27, (3α,4α,5α) 3-Butyl-3-ethyl-4,8-dihydroxy-5-phenyl-2,3,4,5-tetrahydrobenzothiepine-1,1-dioxide]",–,–,–,–,–,–,–,–,7
–,0.01,"CCCCC1(CCCC)CS(=O)(=O)c2ccc(N(C)C)cc2[C@@H](c2ccc(OCCCCC(=O)O)cc2)[C@H]1O [Example 1404, (4R-cis)-5-[4-[3,3-Dibutyl-7-(dimethylamino)-2,3,4,5-tetrahydro-4-hydroxy-1,1-dioxido-1-benzothiepin-5-yl]phenoxy]pentanoic Acid]",–,–,93.7 micromoles fecal bile acid per day,–,33.5 micromoles fecal bile acid per day,–,59.1 micromoles fecal bile acid per day,–,–
–,0.002,"CCCCC1(CCCC)CS(=O)(=O)c2ccc(N(C)C)cc2[C@@H](c2ccc(OCCCCCNCCc3cnc[nH]3)cc2)[C@H]1O [Example 1417, (4R-cis)-3,3-Dibutyl-7-(dimethylamino)-2,3,4,5-tetrahydro-5-[4-[[5-[[2-(1H-imidazol-4-yl)ethyl]amino]pentyl]oxy]phenyl]-1-benzothiepin-4-ol 1,1-dioxide]",–,51.4 micromoles fecal bile acid per day,–,29.3 micromoles fecal bile acid per day,–,39.6 micromoles fecal bile acid per day,–,42 micromoles fecal bile acid per day,–
–,0.002,"CCCCC1(CCCC)CS(=O)(=O)c2ccc(N(C)C)cc2[C@@H](c2ccc(OCCCCCN(CC(=O)O)CC(=O)O)cc2)[C@H]1O [Example 1415, (4R-cis)-N-(Carboxymethyl)-N-[5-[4-[3,3-dibutyl-7-(dimethylamino)-2,3,4,5-tetrahydro-4-hydroxy-1,1-dioxido-1-benzothiepin-5-yl]phenoxy]pentyl]glycine]",–,48.9 micromoles fecal bile acid per day,59.9 micromoles fecal bile acid per day,12.7 micromoles fecal bile acid per day,23.9 micromoles fecal bile acid per day,27.1 micromoles fecal bile acid per day,48.1 micromoles fecal bile acid per day,25.7 micromoles fecal bile acid per day,–
–,0.002,"CCCCC1(CCCC)CS(=O)(=O)c2ccc(N(C)C)cc2[C@@H](c2ccc(OCCCC[N+](CC)(CC)CC)cc2)[C@H]1O.CS(=O)(=O)[O-] [Example 1410, (4R-cis)-4-[4-[3,3-Dibutyl-7-(dimethylamino)-2,3,4,5-tetrahydro-4-hydroxy-1,1-dioxido-1-benzothiepin-5-yl]phenoxy]-N,N,N-triethyl-1-butanaminium]",–,26.2 micromoles fecal bile acid per day,–,20.4 micromoles fecal bile acid per day,–,18.5 micromoles fecal bile acid per day,–,36.5 micromoles fecal bile acid per day,–
–,0.002,CCCCC1(CCCC)CS(=O)(=O)c2ccc(N(C)C)cc2[C@@H](c2ccc(OCc3ccc(CN(CC(=O)O)CC(=O)O)cc3)cc2)[C@H]1O (relative stereo) [Example 1427],–,36.7 micromoles fecal bile acid per day,–,13.8 micromoles fecal bile acid per day,–,27.3 micromoles fecal bile acid per day,–,35.8 micromoles fecal bile acid per day,–
